Measured values: the NIST ThermoML archive (doi:10.1016/j.jct.2017.07.008)
Where “and” joins values, the source holds several entries; their conditions need not be identical. Equal values may be shown once.

Details: for mass density / viscosity / speed of sound / vapor or sublimation pressure: Liquid; for mass density: Vibrating tube method; for surface tension liquid-gas: Drop volume; for viscosity: Capillary tube (Ostwald / Ubbelohde) method; for speed of sound: Frequency=3 MHz, Single path-length method; for vapor or sublimation pressure: Ebulliometric method (Recirculating still)

OCc1cccs1 [2-thiophenemethanol]
Details	mass density	speed of sound [m/s]	viscosity [mPa·s]
313.15 K, 55000 kPa	1216.51 kg/m3	–	–
313.15 K, 60000 kPa	1218.68 kg/m3	–	–
313.15 K, 65000 kPa	1220.8 kg/m3	–	–
315.65 K, 100 kPa	1186.63 kg/m3	1450.4	4.147
318.15 K, 100 kPa	1184.39 kg/m3	1443.2	3.87
318.15 K, 2000 kPa	1185.52 kg/m3	–	–
318.15 K, 5000 kPa	1187.27 kg/m3	–	–
318.15 K, 7000 kPa	1188.42 kg/m3	–	–
318.15 K, 10000 kPa	1190.12 kg/m3	–	–
318.15 K, 15000 kPa	1192.88 kg/m3	–	–
318.15 K, 20000 kPa	1195.57 kg/m3	–	–
318.15 K, 25000 kPa	1198.18 kg/m3	–	–
318.15 K, 30000 kPa	1200.72 kg/m3	–	–
318.15 K, 35000 kPa	1203.2 kg/m3	–	–
318.15 K, 40000 kPa	1205.62 kg/m3	–	–
318.15 K, 45000 kPa	1207.98 kg/m3	–	–
318.15 K, 50000 kPa	1210.29 kg/m3	–	–
318.15 K, 55000 kPa	1212.54 kg/m3	–	–
318.15 K, 60000 kPa	1214.74 kg/m3	–	–
318.15 K, 65000 kPa	1216.9 kg/m3	–	–
320.65 K, 100 kPa	1182.14 kg/m3	1436	3.615
323.15 K, 100 kPa	1179.88 kg/m3	1428.8	3.355
323.15 K, 2000 kPa	1181.03 kg/m3	–	–
323.15 K, 5000 kPa	1182.82 kg/m3	–	–
323.15 K, 7000 kPa	1183.99 kg/m3	–	–
323.15 K, 10000 kPa	1185.73 kg/m3	–	–
323.15 K, 15000 kPa	1188.55 kg/m3	–	–
323.15 K, 20000 kPa	1191.29 kg/m3	–	–
323.15 K, 25000 kPa	1193.95 kg/m3	–	–
323.15 K, 30000 kPa	1196.55 kg/m3	–	–
323.15 K, 35000 kPa	1199.07 kg/m3	–	–
323.15 K, 40000 kPa	1201.53 kg/m3	–	–
323.15 K, 45000 kPa	1203.93 kg/m3	–	–
323.15 K, 50000 kPa	1206.28 kg/m3	–	–
323.15 K, 55000 kPa	1208.56 kg/m3	–	–
323.15 K, 60000 kPa	1210.8 kg/m3	–	–
323.15 K, 65000 kPa	1212.99 kg/m3	–	–
325.65 K, 100 kPa	1177.63 kg/m3	1421.6	3.17
328.15 K, 100 kPa	1175.35 kg/m3 and 1175.36 kg/m3	1414.5	2.957
328.15 K, 2000 kPa	1176.53 kg/m3	–	–
328.15 K, 5000 kPa	1178.35 kg/m3	–	–
328.15 K, 7000 kPa	1179.55 kg/m3	–	–
328.15 K, 10000 kPa	1181.33 kg/m3	–	–
328.15 K, 15000 kPa	1184.21 kg/m3	–	–
328.15 K, 20000 kPa	1187 kg/m3	–	–
328.15 K, 25000 kPa	1189.72 kg/m3	–	–
328.15 K, 30000 kPa	1192.36 kg/m3	–	–
328.15 K, 35000 kPa	1194.93 kg/m3	–	–
328.15 K, 40000 kPa	1197.44 kg/m3	–	–
328.15 K, 45000 kPa	1199.88 kg/m3	–	–
328.15 K, 50000 kPa	1202.26 kg/m3	–	–
328.15 K, 55000 kPa	1204.58 kg/m3	–	–
328.15 K, 60000 kPa	1206.86 kg/m3	–	–
328.15 K, 65000 kPa	1209.08 kg/m3	–	–
330.65 K, 100 kPa	1173.09 kg/m3	1407.3	2.785
333.15 K, 100 kPa	1170.8 kg/m3 and 1170.82 kg/m3	1400.1	2.628
333.15 K, 2000 kPa	1172 kg/m3	–	–
333.15 K, 5000 kPa	1173.87 kg/m3	–	–
333.15 K, 7000 kPa	1175.1 kg/m3	–	–
333.15 K, 10000 kPa	1176.91 kg/m3	–	–
333.15 K, 15000 kPa	1179.85 kg/m3	–	–
333.15 K, 20000 kPa	1182.7 kg/m3	–	–
333.15 K, 25000 kPa	1185.47 kg/m3	–	–
333.15 K, 30000 kPa	1188.16 kg/m3	–	–
333.15 K, 35000 kPa	1190.78 kg/m3	–	–
333.15 K, 40000 kPa	1193.33 kg/m3	–	–
333.15 K, 45000 kPa	1195.82 kg/m3	–	–
333.15 K, 50000 kPa	1198.24 kg/m3	–	–
333.15 K, 55000 kPa	1200.6 kg/m3	–	–
333.15 K, 60000 kPa	1202.91 kg/m3	–	–
333.15 K, 65000 kPa	1205.17 kg/m3	–	–
335.65 K, 100 kPa	1168.53 kg/m3	1392.9	2.486
338.15 K, 100 kPa	1166.23 kg/m3 and 1166.25 kg/m3	1385.8	2.372
338.15 K, 2000 kPa	1167.46 kg/m3	–	–
338.15 K, 5000 kPa	1169.37 kg/m3	–	–
338.15 K, 7000 kPa	1170.63 kg/m3	–	–
338.15 K, 10000 kPa	1172.48 kg/m3	–	–
338.15 K, 15000 kPa	1175.48 kg/m3	–	–
338.15 K, 20000 kPa	1178.39 kg/m3	–	–
338.15 K, 25000 kPa	1181.22 kg/m3	–	–
338.15 K, 30000 kPa	1183.96 kg/m3	–	–
338.15 K, 35000 kPa	1186.63 kg/m3	–	–
338.15 K, 40000 kPa	1189.22 kg/m3	–	–
338.15 K, 45000 kPa	1191.75 kg/m3	–	–
338.15 K, 50000 kPa	1194.21 kg/m3	–	–
338.15 K, 55000 kPa	1196.62 kg/m3	–	–
338.15 K, 60000 kPa	1198.96 kg/m3	–	–
338.15 K, 65000 kPa	1201.25 kg/m3	–	–

Details	surface tension liquid-gas [mN/m]	vapor or sublimation pressure [kPa]
315.65 K	41.73	–
318.15 K	41.48	–
320.65 K	41.22	–
323.15 K	40.95	–
325.65 K	40.67	–
328.15 K	40.4	–
330.65 K	40.1	–
333.15 K	39.8	–
335.65 K	39.51	–
338.15 K	39.24	–
351.15 K	–	0.545
354.25 K	–	0.665
357.17 K	–	0.785
361.3 K	–	1.025
365.19 K	–	1.275
366.38 K	–	1.355
367.49 K	–	1.415
368.14 K	–	1.475
369.77 K	–	1.61
372.56 K	–	1.88
373.21 K	–	1.96
377.74 K	–	2.44
382.13 K	–	3.06
386.07 K	–	3.675
387.56 K	–	3.93
388.56 K	–	4.15
391.84 K	–	4.77
393.87 K	–	5.25
397.94 K	–	6.25
399.72 K	–	6.8
402.41 K	–	7.6
404.37 K	–	8.25
406.56 K	–	9
408.27 K	–	9.665
411.5 K	–	10.96
415.06 K	–	12.6
416.56 K	–	13.38
418.63 K	–	14.47
420.23 K	–	15.36
422.21 K	–	16.51
424.64 K	–	18.05
426.07 K	–	19
428.27 K	–	20.52
429.37 K	–	21.34
431.17 K	–	22.77
432.56 K	–	23.88
433.65 K	–	24.78
